# Measured values published in US20110301143A1, “HETEROCYCLIC DERIVATIVES AS INHIBITORS OF STEAROYL-COENZYME A DELTA-9 DESATURASE” (priority 2009, published 2011).
# Target: T1, human SCD1 (hSCD-1) (Homo sapiens, UniProt O00767)
# T1 construct: made in house; host or cells: baculovirus/Sf9 insect cells
# T1 sequence (O00767 1-359): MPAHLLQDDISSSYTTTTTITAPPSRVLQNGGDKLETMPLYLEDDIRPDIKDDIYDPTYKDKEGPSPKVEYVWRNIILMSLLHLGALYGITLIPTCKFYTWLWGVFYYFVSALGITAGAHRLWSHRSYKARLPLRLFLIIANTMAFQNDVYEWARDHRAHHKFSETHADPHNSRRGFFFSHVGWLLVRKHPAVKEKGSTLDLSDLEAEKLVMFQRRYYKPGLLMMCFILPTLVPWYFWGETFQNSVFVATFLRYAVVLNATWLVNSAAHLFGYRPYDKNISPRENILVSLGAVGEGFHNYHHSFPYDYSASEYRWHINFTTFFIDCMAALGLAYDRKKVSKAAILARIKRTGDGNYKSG
# Assay: SCD enzyme activity assay, reconstituted human SCD1 (conversion of radiolabeled stearoyl-CoA to oleoyl-CoA)
# Type: biochemical
# Details: human SCD-1
# Experimental: The potency of compounds of formula I against the stearoyl-CoA desaturase was determined by measuring the conversion of radiolabeled stearoyl-CoA to oleoyl-CoA using rat liver microsome or human SCD1 (hSCD-1) following previously published procedures with some modifications (Joshi, et al., J. Lipid Res., 18: 32-36 (1977); Talamo, et al., Anal. Biochem, 29: 300-304 (1969)). Liver microsome was prepared from male Wistar or Sprague Dawley rats on a high carbohydrate diet for 3 days (LabDiet # 5803, Purina). The livers were homogenized (1:10 w/v) in a buffer containing 250 mM sucrose, 1 mM EDTA, 5 mM DTT and 50 mM Tris-HCl (pH 7.5). After a 100,000×g centrifugation for 60 min, the liver microsome pellet was suspended in a buffer containing 100 mM sodium phosphate, 20% glycerol, 2 mM DTT, and stored at −78° C. Human SCD1 desaturase system was reconstituted using human SCD1 from a baculovirus/Sf9 expression system, cytochrome B5 and cytochrome B5 reductase. Typically, test compound in 2 μL DMSO was incubated for 15 min at room temperature with 180 μL of the SCD enzyme in a buffer containing 100 mM Tris-HCl (pH 7.5), ATP (5 mM), Coenzyme-A (0.1 mM), Triton X-100 (0.5 mM) and NADH (2 mM). The reaction was initiated by the addition of 20 μL of [^3H]-stearoyl-CoA (final concentration=2 μM, radioactivity concentration=1 μCi/mL). After 10 min, the reaction mixture (80 μL) was mixed with a calcium chloride/charcoal aqueous suspension (100 μl, charcoal (10% w/v) plus 25 μL CaCl2 (2N). After centrifugation to precipitate the radioactive fatty acid species, tritiated water released from 9,10-[^3H]-stearoyl-CoA by the SCD enzyme was quantified on a scintillation counter.
row,Compound,IC50 [nM]
1,O=C(O)Cn1nnc(-c2cc(N3CCN(C(=O)c4cc(C(F)(F)F)ccc4Cl)CC3)no2)n1,24
2,O=C(O)Cn1nnc(-c2cc(N3CCN(c4cccc(C(F)(F)F)c4)CC3)no2)n1,83
3,O=C(O)Cn1nnc(-c2cc(N3CCN(c4cc(F)ccc4Cl)CC3)no2)n1,35
4,O=C(O)Cn1nnc(-c2cnc(N3CCCN(c4ccccc4C(F)(F)F)CC3)s2)n1,30
5,O=C(O)Cn1nnc(-c2cnc(N3CCCN(c4cc(F)ccc4Cl)CC3)s2)n1,29
6,O=C(O)Cn1nnc(-c2cnc(N3CCN(c4cc(C(F)(F)F)cc(C(F)(F)F)c4)CC3)nc2)n1,44
7,O=C(O)Cn1nnc(-c2cc(N3CCC(C(=O)c4cc(C(F)(F)F)ccc4Cl)CC3)no2)n1,22
8,O=C(O)Cn1nnc(-c2cc(N3CCC(C(=O)c4ccc(F)cc4Cl)CC3)no2)n1,50
9,Cc1ccc(C(F)(F)F)cc1C(=O)C1CCN(c2cc(-c3nnn(CC(=O)O)n3)on2)CC1,48
10,Cc1ccc(F)cc1C(=O)C1CCN(c2cc(-c3nnn(CC(=O)O)n3)on2)CC1,20
11,O=C(O)Cn1nnc(-c2cc(N3CCC(C(=O)c4ccccc4OC(F)(F)F)CC3)no2)n1,66
12,O=C(O)Cn1nnc(-c2cnc(N3CCC(C(=O)c4cc(Cl)ccc4Cl)CC3)nc2)n1,58
13,O=C(O)Cn1nnc(-c2cnc(N3CCC(C(=O)c4cc(F)ccc4Cl)CC3)nc2)n1,46
14,O=C(O)Cn1nnc(-c2cnc(N3CCC(C(=O)c4cc(F)ccc4C(F)(F)F)CC3)nc2)n1,27
15,O=C(O)Cn1nnc(-c2cc(N3CCC(C(=O)c4cc(F)ccc4CC4CC4)CC3)no2)n1,< 20
16,O=C(O)Cn1nnc(-c2cc(N3CCC(C(=O)c4cc(F)ccc4C4CCC4)CC3)no2)n1,< 20

row,Compound,IC50 [nM]
1,O=C(O)Cn1nnc(-c2cc(N3CCC(C(=O)c4cc(F)ccc4C4CC4)CC3)no2)n1,< 20
2,O=C(O)Cn1nnc(-c2cc(N3CCC(C(=O)c4cc(Br)ccc4Br)CC3)no2)n1,< 20
3,COc1ccc(OC(F)(F)F)cc1C(=O)C1CCN(c2cc(-c3nnn(CC(=O)O)n3)on2)CC1,85
4,Cc1ccc(Cl)cc1C(=O)C1CCN(c2cc(-c3nnn(CC(=O)O)n3)on2)CC1,28
5,CCCc1ccc(Cl)cc1C(=O)C1CCN(c2cc(-c3nnn(CC(=O)O)n3)on2)CC1,23
6,CCc1ccc(Cl)cc1C(=O)C1CCN(c2cc(-c3nnn(CC(=O)O)n3)on2)CC1,< 20
7,O=C(O)Cn1nnc(-c2cc(N3CCC(C(=O)c4cc(Cl)ccc4Br)CC3)no2)n1,< 20
8,COc1ccc(Cl)c(C(=O)C2CCN(c3cc(-c4nnn(CC(=O)O)n4)on3)CC2)c1,95
9,Cc1ccc(Cl)c(C(=O)C2CCN(c3cc(-c4nnn(CC(=O)O)n4)on3)CC2)c1,79
10,O=C(O)Cn1nnc(-c2cc(N3CCC(C(=O)c4cc(F)ccc4Br)CC3)no2)n1,< 20
11,O=C(O)Cn1nnc(-c2cc(N3CCC(C(=O)c4ccccc4OC(F)F)CC3)no2)n1,40
12,O=C(O)Cn1nnc(-c2cc(N3CCC(C(=O)c4cc(Cl)ccc4C(F)(F)F)CC3)no2)n1,32
13,O=C(O)Cn1nnc(-c2cc(N3CCC(C(=O)c4ccccc4Br)CC3)no2)n1,28
14,O=C(O)Cn1nnc(-c2cc(N3CCC(C(=O)c4cc(Cl)ccc4Cl)CC3)no2)n1,31
15,CCC(C)c1ccc(F)cc1C(=O)C1CCN(c2cc(-c3nnn(CC(=O)O)n3)on2)CC1 (stereo not shown) [drawing 70],< 20
16,CCC(C)c1ccc(F)cc1C(=O)C1CCN(c2cc(-c3nnn(CC(=O)O)n3)on2)CC1 (stereo not shown) [drawing 71],< 20

# Results, then the compound that gave them:
row,IC50 [nM],Compound
1,< 20,O=C(O)Cn1nnc(-c2cc(N3CCN(C(=O)c4cccc(OC(F)(F)F)c4)CC3)no2)n1
2,< 20,O=C(O)Cn1nnc(-c2cnc(N3CCC(C(=O)c4ccccc4C(F)(F)F)CC3)s2)n1
3,< 20,O=C(O)Cn1nnc(-c2cnc(N3CCN(c4cccc(OC(F)(F)F)c4)CC3)s2)n1
4,< 20,O=C(O)Cn1nnc(-c2cc(N3CCC(C(=O)c4ccccc4C(F)(F)F)CC3)no2)n1
5,< 20,O=C(O)Cn1nnc(-c2cnc(N3CC=C(c4ccccc4C(F)(F)F)CC3)s2)n1
6,< 20,CCc1ccc(F)cc1C(=O)C1CCN(c2cc(-c3nnn(CC(=O)O)n3)on2)CC1
7,< 20,O=C(O)Cn1nnc(-c2cnc(N3CCC(c4cccc(C(F)(F)F)c4)CC3)s2)n1
8,< 20,O=C(O)Cn1nnc(-c2cnc(N3CCN(c4ccccc4C(F)(F)F)CC3)s2)n1
9,< 20,O=C(O)Cn1nnc(-c2cnc(N3CCN(c4cc(F)ccc4Cl)CC3)s2)n1
10,< 20,O=C(O)Cn1nnc(-c2cc(N3CCC(C(=O)c4cc(F)ccc4Cl)CC3)no2)n1
11,< 20,O=C(O)Cn1nnc(-c2cc(N3CCC(C(=O)c4cc(F)ccc4C(F)(F)F)CC3)no2)n1
12,< 20,O=C(O)Cn1nnc(-c2cnc(N3CCN(c4cc(C(F)(F)F)ccc4Cl)CC3)s2)n1
13,< 20,O=C(O)Cn1nnc(-c2cnc(N3CCN(c4cc(Cl)ccc4F)CC3)s2)n1
14,< 20,O=C(O)Cn1nnc(-c2cnc(N3C[C@@H]4C[C@H]3CN4c3cc(F)ccc3Cl)s2)n1
15,< 20,O=C(O)Cn1nnc(-c2cnc(N3C[C@@H]4C[C@H]3CN4c3cccc(Cl)c3)s2)n1
16,< 20,CCC(C)c1ccccc1C(=O)C1CCN(c2cc(-c3nnn(CC(=O)O)n3)on2)CC1 (stereo not shown)
17,< 20,O=C(O)Cn1nnc(-c2cc(N3CCC(C(=O)c4cc(Cl)ccc4C(F)F)CC3)no2)n1
18,< 20,CC1(c2ccccc2C(=O)C2CCN(c3cc(-c4nnn(CC(=O)O)n4)on3)CC2)CC1
19,< 20,CC(C)(F)c1ccccc1C(=O)C1CCN(c2cc(-c3nnn(CC(=O)O)n3)on2)CC1
20,< 20,CC1(c2ccc(F)cc2C(=O)C2CCN(c3cc(-c4nnn(CC(=O)O)n4)on3)CC2)CC1
21,< 20,O=C(O)Cn1nnc(-c2cc(N3CCC(C(=O)c4cc(F)ccc4C(F)F)CC3)no2)n1
22,< 20,O=C(O)Cn1nnc(-c2cc(N3CCC(C(=O)c4cc(C(F)(F)F)ccc4C(F)(F)F)CC3)no2)n1
23,< 20,O=C(O)Cn1nnc(-c2cnc(N3CCC(C(=O)c4cc(OC(F)(F)F)ccc4Cl)CC3)nc2)n1
